These results are taken from patent US20090203050A1 (The Regents of the University of California, priority 2005, published 2009).

One series has as its system Daudi-RR1. The series can be described thus: DNA fragmentation (PI) apoptosis assay, Daudi-RR1. Conditions: for resistance of clone compared with wt cells / resistance of clone compared with wt cells, value in parentheses / apoptosis, drug alone: 18 h; for apoptosis, drug after DHMEQ pre-treatment: DHMEQ 20 μg/ml 2 h, then highest drug concentration 18 h; for apoptosis, drug alone: highest drug concentration. Here is the method: (§1) Percentage of apoptotic cells was determined by evaluation of propidium iodide (PI) stained preparations of cells using an EpicXL flow-cytometer. Cellular debris was excluded from analysis by raising the forward scatter threshold, and DNA content of the intact nuclei was recorded on a logarithmic scale (Nicoletti, I. et al., J. Immunol. Methods, 139:271-9 (1991)). Percent apoptosis is represented as percentage of hypodiploid cells accumulated at sub-G0 phase of cell cycle.
(§2) Cells were left either untreated or pre-treated with DHMEQ (36), bortezomib (Goy, A. et al., Clin. Lymphoma, 4:230-7 (2004)) and PD098059 (Alessi, D. et al., J. Biol. Chem., 270:27489-94 (1995)). Escalating concentrations of various drugs were then added and the percentage of apoptosis was measured.

Another series concerns Ramos-RR1. The series can be described thus: DNA fragmentation (PI) apoptosis assay, Ramos-RR1. Conditions: for resistance of clone compared with wt cells / resistance of clone compared with wt cells, value in parentheses / apoptosis, drug alone: 18 h; for apoptosis, drug after DHMEQ pre-treatment: DHMEQ 20 μg/ml 2 h, then highest drug concentration 18 h; for apoptosis, drug alone: highest drug concentration. On the procedure: as §1, §2

Another series relates to RR clones. In words: DNA fragmentation apoptosis assay, RR clones (pooled statements). It is filed as cell-based, human. Particulars: drugs e.g. Paclitaxel, Vincristine, VP-16, CDDP, Adriamycin. Here is the method:
Thus, we examined if such sensitizing agents can reverse the resistance in the RR clones.
as §1, §2

A further series deals with Ramos wt cells. In words: DNA fragmentation (PI) apoptosis assay, Ramos wt. It is filed as cell-based, human.
A further series deals with Daudi wt cells. In words: DNA fragmentation (PI) apoptosis assay, Daudi wt. It is filed as cell-based, human.
The subject of series [1] is 2F7, Ramos and Daudi wild type and RR clones. In words: TRAIL-mediated apoptosis in B-NHL cell lines and RR clones (DNA fragmentation). Format: cell-based, human. Particulars: for sensitization to TRAIL-induced apoptosis: inhibitor pretreatment 2 h, then TRAIL 18 h, rituximab-sensitive and -resistant cells. The text has this:
Patients with B-NHL respond initially to conventional chemotherapy and/or to immunotherapy with rituximab (alone or in combination with chemotherapy). However, patients develop resistance to these modalities and novel approaches are needed. TRAIL is a cytotoxic molecule that exerts selective anti-tumor cytotoxic activity with minimal toxicity to normal tissues. Further, TRAIL or agonist monoclonal antibody (mAb) to TRAIL receptors, DR4 and DR5, are currently being tested clinically. The present study investigated the sensitivity of B-NHL cell lines to TRAIL-mediated apoptosis using the AIDS-related NHL (ARL) B-cell line, 2F7, and the B-NHL cell lines, Ramos and Daudi. Also, to recapitulate various aspects of acquired rituximab-resistance, we have generated rituximab-resistant (RR) clones from the parental wild type (wt) cells. […] We then examined means to reverse […] resistance. We and others have reported that inhibition of NFκB activity can sensitize TRAIL-resistant tumor cells to TRAIL-induced apoptosis. […] Both the rituximab-sensitive and rituximab-resistant tumor cells were sensitized by these inhibitors, though higher concentrations were required for sensitization of the RR clones. […] Based on the findings, patients with resistant B-NHL can be treated with combination of TRAIL/anti-DR4 or DR5 mAb and NFκB inhibitors. Alternatively, these patients can be treated with agents that up-regulate TRAIL expression on host effectors (e.g., T cells, NK cells) in combination with NFκB inhibitors.

For series [2], the system named is p38MAPK/NF-κB/YY1/STAT3 signaling pathways, Bcl-2. In words: Molecular analysis of signaling in 2F7RR1. It is filed as cell-based. Particulars: 2F7-RR1. An excerpt:
(§3) Accordingly, we examined whether inhibition of Bcl-2 in 2F7RR1 can reverse chemoresistance. Since Bcl-2 is under the transcriptional regulation of NFκB, we examined the effect of the NF-κB inhibitors Bortezomib and DHMEQ (Kikuchi, et al., Cancer Research, 63:107 (2003)).
(§4) The mechanism by which B-NHL patients resist treatment is not known. […] We examined the effect of various chemical inhibitors of this signaling pathway on chemosensitization.

The subject of another series is 2F7RR1 clone. The series can be described thus: Chemotherapeutic drug-induced apoptosis in 2F7RR1. Format: cell-based.
From the text: as §3, §4

In another series the test system is Ramos and Daudi. Conditions: ERK1/2 pathway inhibitors; cited from earlier work.
[3] abbreviates: Ramos-RR1, 2MAM-A3 35 μg/ml 7 h, paclitaxel 10 nM 18 h.
The mark [4] stands for this setting: wt Ramos, 2MAM-A3 15 μg/ml 7 h, paclitaxel 10 nM 18 h.

Entries after “also recorded” stand apart in the source; their conditions may differ.

On to `CCCC[C@H]1C(=O)O[C@H](C)[C@H](NC(=O)c2cccc(NC=O)c2OC)C(=O)O[C@@H](C)[C@@H]1OC(=O)CC(C)C` [2MAM-A3, 2-methoxyantimycin-A3], for which the “augmentation of paclitaxel cytotoxicity” value stood at 3.2 folds in the series with Daudi-RR1 (Daudi-RR1, 2MAM-A3 35 μg/ml 7 h, paclitaxel 10 nM 18 h); 4.71 folds with Ramos-RR1 (setting [3]); 1.96 folds with Ramos wt cells (setting [4]); 1.98 fold in the series on Daudi wt cells (2MAM-A3 15 μg/ml 7 h, paclitaxel 10 nM 18 h). For the same molecule, the “apoptosis, paclitaxel after 2MAM-A3 pre-treatment” value in the series on Ramos-RR1 (setting [3]) turned out to be 39.7±2.4%; in the series with Ramos wt cells (setting [4]), 26.7±2.2%. Also, the “sensitization of RR clones to various chemotherapeutic drugs” value (shortened to “sensitization of RR clones”) in the series with RR clones is recorded as “sensitized”.
As for `COc1cccc2c1C(=O)c1c(O)c3c(c(O)c1C2=O)C[C@@](O)(C(=O)CO)C[C@@H]3O[C@H]1C[C@H](N)[C@H](O)[C@H](C)O1` [ADR], in the series with Daudi-RR1 (Daudi-RR1), the “resistance of clone compared with wt cells” value stood at 1.94 folds; the “resistance of clone compared with wt cells, value in parentheses” value turned out to be 149%; the “apoptosis, drug after DHMEQ pre-treatment” value worked out at 40.5±3.1%; the “apoptosis, drug alone” value was 12.4±2.5%. Besides, in the series on Ramos-RR1 (Ramos-RR1), the “resistance of clone compared with wt cells” value is 2.3 folds; the “resistance of clone compared with wt cells, value in parentheses” value is recorded as 158%; the “apoptosis, drug after DHMEQ pre-treatment” value is reported as 32.4±2.9%; the “apoptosis, drug alone” value turned out to be 14.3±3.3%.
As for `CC(C)(C)c1ccc(S(=O)(=O)/C=C/C#N)cc1` [Bay 11-7085], the “sensitization to TRAIL-induced apoptosis” value in [1] is “significant augmentation of apoptosis and synergy was achieved”. For the same molecule, the “sensitization of RR clones” value in the series on RR clones is on record as “sensitized”.
Regarding `CC(C)C[C@H](NC(=O)[C@H](Cc1ccccc1)NC(=O)c1cnccn1)B(O)O` [Bortezomib], the “effect on NF-kB, YY1 and Bcl-2 expression” value in series [2] is “inhibition of NF-kB, YY1 and downregulated Bcl-2 expression”. Besides, the “enhanced cytotoxicity of drugs by inhibitor” value is on record as 1.7-3.3 folds with Daudi-RR1 and 1.8-5.1 folds in the series on Ramos-RR1. Also, the “chemosensitization to drug-induced apoptosis (taxol, vincristine, ADR, CDDP, VP16)” value with 2F7RR1 clone is “reversal of resistance; also recorded: significantly sensitized”. In addition, the “sensitization to TRAIL-induced apoptosis” value in series [1] was “significant augmentation of apoptosis and synergy was achieved”. Besides, the “sensitization of RR clones” value in the series on RR clones is given as “sensitized”.
With `N.N.[Cl][Pt][Cl]` [CDDP], in the series on Daudi-RR1 (Daudi-RR1), the “resistance of clone compared with wt cells” value came out at 1.95 folds; the “resistance of clone compared with wt cells, value in parentheses” value came to 149%; the “apoptosis, drug after DHMEQ pre-treatment” value was found to be 36.6±0.9%; the “apoptosis, drug alone” value is listed as 25.7±3.1%. Further, in the series on Ramos-RR1 (Ramos-RR1), the “resistance of clone compared with wt cells” value is 1.41 folds; the “resistance of clone compared with wt cells, value in parentheses” value is given as 120%; the “apoptosis, drug after DHMEQ pre-treatment” value came to 61.2±2.1%; the “apoptosis, drug alone” value is reported as 19.0±0.7%.
With `O=C1Nc2ccc(I)cc2/C1=C/c1cc(Br)c(O)c(Br)c1` [GW 5074], the “sensitization to drug-induced apoptosis” value with Ramos and Daudi was “also sensitize the cells”.
With `C[S+]([O-])c1ccc(-c2nc(-c3ccncc3)c(-c3ccc(F)cc3)[nH]2)cc1` (centres unmarked) [SB 203580], in the series on RR clones, the “sensitization of RR clones” value is listed as “sensitized”.
Turning to `N#CC(=C(/N)Sc1ccccc1N)/C(C#N)=C(/N)Sc1ccccc1N` [UO126], the “sensitization to drug-induced apoptosis” value with Ramos and Daudi is “also sensitize the cells”.
On to `COc1cc([C@@H]2c3cc4c(cc3[C@@H](O[C@@H]3O[C@@H]5CO[C@@H](C)O[C@H]5[C@H](O)[C@H]3O)[C@H]3COC(=O)[C@H]23)OCO4)cc(OC)c1O` [VP-16], for which, in the series with Daudi-RR1 (Daudi-RR1), the “resistance of clone compared with wt cells” value amounted to 2.97 folds; the “resistance of clone compared with wt cells, value in parentheses” value was 167%; the “apoptosis, drug after DHMEQ pre-treatment” value was 32.0±2.2%; the “apoptosis, drug alone” value stood at 11.8±0.9%. Moreover, in the series with Ramos-RR1 (Ramos-RR1), the “resistance of clone compared with wt cells” value stood at 1.8 folds; the “resistance of clone compared with wt cells, value in parentheses” value was 145%; the “apoptosis, drug after DHMEQ pre-treatment” value amounted to 53.0±2.6%; the “apoptosis, drug alone” value was 10.3±1.1%.
For the molecule `CC(=O)O[C@H]1C(=O)[C@@]2(C)[C@H]([C@H](OC(=O)c3ccccc3)[C@]3(O)C[C@H](OC(=O)[C@H](O)[C@@H](NC(=O)c4ccccc4)c4ccccc4)C(C)=C1C3(C)C)[C@]1(OC(C)=O)CO[C@@H]1C[C@@H]2O` [paclitaxel], in the series on Daudi-RR1 (Daudi-RR1), the “resistance of clone compared with wt cells” value came out at 1.63 folds; the “resistance of clone compared with wt cells, value in parentheses” value turned out to be 139%; the “apoptosis, drug after DHMEQ pre-treatment” value came out at 42.0±1.9%; the “apoptosis, drug alone” value came out at 14.9±3.2%. In the series on Ramos-RR1 (Ramos-RR1), the “resistance of clone compared with wt cells” value turned out to be 1.54 folds; the “resistance of clone compared with wt cells, value in parentheses” value turned out to be 136%; the “apoptosis, drug after DHMEQ pre-treatment” value was determined as 46.5±2.3%; the “apoptosis, drug alone” value stood at 20.4±3.0%. The “apoptosis, paclitaxel alone” value with Ramos-RR1 (Ramos-RR1, paclitaxel 10 nM 18 h) is recorded as 8.42±2.1%. Moreover, the “apoptosis, paclitaxel alone” value in the series on Ramos wt cells (wt Ramos, paclitaxel 10 nM 18 h) is reported as 13.6±1.3%.
As for `CC[C@]1(O)C[C@H]2CN(CCc3c([nH]c4ccccc34)[C@@](C(=O)OC)(c3cc4c(cc3OC)N(C=O)[C@H]3[C@@](O)(C(=O)OC)[C@H](OC(C)=O)[C@]5(CC)C=CCN6CC[C@]43[C@@H]65)C2)C1` [vincristine], in the series with Daudi-RR1 (Daudi-RR1), the “resistance of clone compared with wt cells” value was found to be 1.66 folds; the “resistance of clone compared with wt cells, value in parentheses” value amounted to 140%; the “apoptosis, drug after DHMEQ pre-treatment” value was 36.6±2.3%; the “apoptosis, drug alone” value amounted to 14.2±1.7%. Moreover, in the series with Ramos-RR1 (Ramos-RR1), the “resistance of clone compared with wt cells” value was 1.42 folds; the “resistance of clone compared with wt cells, value in parentheses” value is 130%; the “apoptosis, drug after DHMEQ pre-treatment” value was 53.5±2.2%; the “apoptosis, drug alone” value worked out at 15.3±1.1%.
Consider “cross-linked rituximab: 50 μg/ml anti-human immunoglobulin (hIg)+20 μg/ml rituximab”, for which the “higher threshold to cross-linked rituximab-mediated apoptosis vs wt” value in the series on Daudi-RR1 (Daudi-RR1) turned out to be 2.56 folds; with Ramos-RR1 (Ramos-RR1), 2.86 folds. For the same molecule, the apoptosis came to 29.2±2.4% in the series with Ramos wt cells (Ramos wt, 50 μg/ml anti-hIg + 20 μg/ml rituximab, 24 h) and 32.8±2.1% in the series with Daudi wt cells (50 μg/ml anti-hIg + 20 μg/ml rituximab, 24 h).

B1: TRAIL: tumor necrosis factor (TNF)-related apoptosis-inducing ligand (protein, UniProt P50591 1-281, looked up)
Tumor necrosis factor ligand …: MAMMEVQGGPSLGQTCVLIVIFTVLLQSLCVAVTYVYFTNELKQMQDKYSKSGIACFLKEDDSYWDPNDEESMNSPCWQVKWQLRQLVRKMILRTSEETISTVQEKQQNISPLVRERGPQRVAAHITGTRGRSNTLSSPNSKNEKALGRKINSWESSRSGHSFLSNLHLRNGELVIHEKGFYYIYSQTYFRFQEEIKENTKNDKQMVQYIYKYTSYPDPILLMKSARNSCWSKDAEYGLYSIYQGGIFELKENDRIFVSVTNEHLIDMDHEASFFGAFLVG
In the case of B1, the “sensitivity to TRAIL-mediated apoptosis” value in [1] (wild type and RR1 cells, TRAIL 1-250 ng/ml, 18 h) was “resistant”.
